Assay: Biodistribution of radiolabelled DTPA complexes in normal rats, compared with 99mTc-DTPA positive control
Assay type: in vivo
Details: normal Sprague-Dawley rats, 111In-labelled complex; for biodistribution of the complex (comparison with reference complex): time points 15 minutes, 60 minutes, 120 minutes, 24 hours
Description: Commercially available DTPA kit (Draximage Co., Ontario, Canada) was labeled with ^99mTc by the standard procedure described in the package insert that was supplied with the kit, and was administered to Sprague-Dawley rats (3 rats for each time point of 15 minutes, 60 minutes, 120 minutes, and 24 hours).
A mixture of the stock solution of DTPA-mono(7-amino-4-methylcoumarin)amide ligand (1 mg/mL in 0.5M sodium acetate buffer, 100 μL), obtained from Gunma University, Japan (Ozaki, et. al. Reference 30), sodium acetate solution (0.5M, 100 μL), and commercially available ^111InCl3 solution (0.1M HCl, 100-200 μCi/100 μL) was adjusted to pH 4.5 and incubated at ambient temperature for 30 minutes. The resulting indium complex was purified by reverse phase HPLC and administered to Sprague-Dawley rats. The biodistribution was carried out in the same manner as that of ^99mTc-DTPA in Example 1 (FIG. 8).

Row | Substance | biodistribution of the complex (comparison with reference complex) | hepatobiliary clearance (relative to reference complex)
1 | ^111In-DTPA-mono(salicylamide) complex [Example 3] | nearly identical to that of ^99mTc-DTPA | 
2 | ^111In-DTPA-bis(salicylamide) complex [Example 6] | nearly identical to that of ^99mTc-DTPA | 
3 | ^111In-DTPA-mono(pyrazinylamino)ethylamide complex [Example 7] | nearly identical to that of ^99mTc-DTPA | 
4 | ^111In-DTPA-mono(quinoxanylamino)ethylamide complex [Example 8] | nearly identical to that of the DTPA-coumarin derivative in Example 2 | 
5 | ^111In-HMDTPA-1-naphthylurethane complex [Example 5] |  | much higher hepatobiliary clearance
6 | ^111In-DTPA-mono(1-naphthylamide) complex [Example 4] | nearly identical to that of ^99mTc-DTPA | 

— patent publication US7674902B2, “Luminescent metal complexes for monitoring renal function” (priority 2004, dated 2010)
